# Measurements: ChEMBL document CHEMBL4251578, “Design, synthesis and biological evaluation of novel 2-aminobenzamides containing dithiocarbamate moiety as histone deacetylase inhibitors and potent antitumor agents” (Eur J Med Chem, 2018)
# Assays:
# MGC-803 [1] = assay: Antiproliferative activity against human MGC803 cells at 2 uM after 72 hrs by CCK-8 assay relative to control; type: functional; conditions: MGC-803, 72 h
# MGC-803 [2] = assay: Antiproliferative activity against human MGC803 cells at 8 uM after 72 hrs by CCK-8 assay relative to control; type: functional; conditions: MGC-803, 72 h
# A-375 [3] = assay: Antiproliferative activity against human A375 cells at 2 uM after 72 hrs by CCK-8 assay relative to control; type: functional; conditions: A-375, 72 h
# A-375 [4] = assay: Antiproliferative activity against human A375 cells at 8 uM after 72 hrs by CCK-8 assay relative to control; type: functional; conditions: A-375, 72 h
# HeLa [5] = assay: Antiproliferative activity against human HeLa cells at 2 uM after 72 hrs by CCK-8 assay relative to control; type: functional
# HeLa [6] = assay: Antiproliferative activity against human HeLa cells at 8 uM after 72 hrs by CCK-8 assay relative to control; type: functional
# A-375 [7] = assay: Antiproliferative activity against human A375 cells after 72 hrs by CCK-8 assay; type: functional, cell-based; conditions: A-375, 72 h
# HeLa [8] = assay: Antiproliferative activity against human HeLa cells after 72 hrs by CCK-8 assay; type: functional, cell-based
# NCI-H1299 = assay: Antiproliferative activity against human NCI-H1299 cells after 72 hrs by CCK-8 assay; type: functional, cell-based; conditions: NCI-H1299, 72 h
# MGC-803 [9] = assay: Antiproliferative activity against human MGC803 cells after 72 hrs by CCK-8 assay; type: functional, cell-based; conditions: MGC-803, 72 h
# SMMC-7721 [10] = assay: Antiproliferative activity against human SMMC7721 cells after 72 hrs by CCK-8 assay; type: functional, cell-based; conditions: SMMC-7721, 72 h
# HCT-116 = assay: Antiproliferative activity against human HCT116 cells after 72 hrs by CCK-8 assay; type: functional, cell-based; conditions: HCT-116, 72 h
# SMMC-7721 [11] = assay: Cell cycle arrest in human SMMC7721 cells assessed as accumulation of cells at G0/G1 phase at 0.125 umol/L after 72 hrs by propidium iodide staining-based flow cytometric analysis (reference value: 80.65%); type: functional
SMILES,inhibition at 2 µM (MGC-803 [1]),inhibition at 8 µM (MGC-803 [2]),inhibition at 2 µM (A-375 [3]),inhibition at 8 µM (A-375 [4]),inhibition at 2 µM (HeLa [5]),inhibition at 8 µM (HeLa [6]),IC50 (A-375 [7]),IC50 (HeLa [8]),IC50 (NCI-H1299),IC50 (MGC-803 [9]),IC50 (SMMC-7721 [10]),IC50 (HCT-116),Activity (SMMC-7721 [11])
CN(C(=S)SCc1ccc(C(=O)Nc2ccccc2N)cc1)c1cccnc1,46.1%,82.5%,26.5%,87.7%,16%,70.5%,–,–,–,–,–,–,–
CC1CCN(C(=S)SCc2ccc(C(=O)Nc3ccccc3N)cc2)CC1,28.1%,81.9%,32.7%,87.4%,46.8%,72.5%,–,–,–,–,–,–,–
Nc1ccccc1NC(=O)c1ccc(CSC(=S)N2CCN(c3cccnc3)CC2)cc1,27.6%,76.9%,40.5%,88.8%,66.2%,72.5%,–,–,–,–,–,–,–
N#Cc1ccc(N2CCN(C(=S)SCc3ccc(C(=O)Nc4ccccc4N)cc3)CC2)cc1,34.5%,37.6%,41.4%,62.9%,71.6%,70.6%,–,–,–,–,–,–,–
Nc1ccccc1NC(=O)c1ccc(CSC(=S)N2CCc3ccc([N+](=O)[O-])cc32)cc1,30.6%,39.6%,22.1%,42%,45.7%,62.1%,–,–,–,–,–,–,–
CN1CCN(C(=S)SCc2ccc(C(=O)Nc3ccccc3N)cc2)CC1,29.6%,84.4%,36.6%,91.6%,52.6%,75.7%,–,–,–,–,–,–,–
Cc1ccc(N2CCN(C(=S)SCc3ccc(C(=O)Nc4ccccc4N)cc3)CC2)cc1,33.4%,19.8%,25.8%,26.4%,25.3%,24%,–,–,–,–,–,–,–
CC(=O)Nc1ccc(C(=O)Nc2ccccc2N)cc1 [TACEDINALINE],9.5%,22.4%,13.4%,33.5%,7.3%,24.3%,11300 nM,18000 nM,33800 nM,–,–,–,–
Nc1ccccc1NC(=O)c1ccc(CSC(=S)N2CCc3cc(Cl)ccc32)cc1,57.7%,82.2%,31.9%,82.3%,40.1%,65.1%,5280 nM,–,3280 nM,1890 nM,1880 nM,3210 nM,–
COC(=O)c1ccc2c(c1)CCN2C(=S)SCc1ccc(C(=O)Nc2ccccc2N)cc1,37.8%,73.1%,37.5%,79.2%,45.3%,60.1%,5880 nM,3580 nM,2020 nM,3280 nM,> 32000 nM,13200 nM,–
Nc1ccccc1NC(=O)c1ccc(CSC(=S)N2CCCC2)cc1,27%,83.4%,30.2%,89.5%,51.3%,77.8%,–,–,–,–,–,–,–
Nc1ccccc1NC(=O)c1ccc(CSC(=S)N2CCN(C(c3ccccc3)c3ccccc3)CC2)cc1,9.8%,9.9%,8.7%,8.4%,8%,13.8%,–,–,–,–,–,–,–
Nc1ccccc1NC(=O)c1ccc(CSC(=S)N2CCN(Cc3cccnc3)CC2)cc1,37.7%,64.6%,31.5%,89.2%,69.7%,78%,–,–,–,–,–,–,–
CN(Cc1ccncc1)C(=S)SCc1ccc(C(=O)Nc2ccccc2N)cc1,38.1%,83.2%,31.4%,86.1%,29.5%,72.7%,–,–,–,–,–,–,–
Nc1ccccc1NC(=O)c1ccc(CSC(=S)N2CCN(c3ccccc3)CC2)cc1,42.3%,87.4%,27.5%,88.6%,62.2%,73.1%,3670 nM,840 nM,610 nM,2140 nM,2860 nM,2330 nM,–
CC1CCCCN1C(=S)SCc1ccc(C(=O)Nc2ccccc2N)cc1 (stereo not drawn),64.4%,86.9%,42.5%,85.2%,45.5%,76.3%,2610 nM,2300 nM,1300 nM,1610 nM,2950 nM,1320 nM,Dose-dependent effect
